From patent US20260315464A1, “COMPOSITIONS, METHODS, AND SYSTEMS FOR MODULATING SPLICING OF MSH3” (REVIR THERAPEUTICS, INC., priority 2023, published 2026)

Test system: MSH3
Assay: QPCR assay for levels of MSH3 upon compound treatment in HEK293T or AD293 cells (fold-change of MSH3 transcript, EC50 of MSH3 downregulation; total MSH3 exons 13/14, exons 20/21; Table 8)
Assay type: cell-based
Settings: for mrna remaining at 1 µM / mrna remaining at 10 µM: Homo sapiens, fold-change of the MSH3 transcript, normalized to GAPDH; for mrna remaining at 1 µM: 1 μM compound; for mrna remaining at 10 µM: 10 μM compound
Method: HEK293T or AD293 cells were treated with Compound 274 at 1 μM and […]. RNA, cDNA and qPCR was prepared using TaqMan Cells-to-CT Express kit (ThermoFisher Scientific). Taqman assays (ThermoFisher Scientific) were used for quantification of total MSH3 exons 13/14 (cat #4351372, ID #: Hs00988993_ml), total MSH3 exons 20/21 (cat #4351372, ID #: Hs00989000_ml), exon 13/PE14A (Fwd: 5′-[…]; Rev: 5′-[…]; Probe: 5′-[…]) and exon 20/PE21A (Fwd: 5′-[…]; Rev: 5′-[…]; Probe: 5′-[…]) mRNA expression. Taqman GAPDH (cat #4448489, ID #: Hs02758991_g1) was used as a reference for data normalization.

In the case of Cc1nc(C)c(-c2cnc3c(c2)C(=O)N(c2ccc(O[C@H]4C[C@]5(C)CC[C@](C)(C4)N5)nn2)C3)s1 [Compound 174, 6-(6-(((1R,3s,5S)-1,5-dimethyl-8-azabicyclo[3.2.1]octan-3-yl)oxy)pyridazin-3-yl)-3-(2,4-dimethylthiazol-5-yl)-6,7-dihydro-5H-pyrrolo[3,4-b]pyridin-5-one], the mrna remaining at 1 µM is reported as 103% and the mrna remaining at 10 µM is reported as 62%.

Compound Cc1nc(C)c(-c2cc(F)c3c(c2)C(=O)N(c2ccc(O[C@H]4C[C@]5(C)CC[C@](C)(C4)N5)nn2)C3)s1 [Compound 286, 2-(6-(((1R,3s,5S)-1,5-dimethyl-8-azabicyclo[3.2.1]octan-3-yl)oxy)pyridazin-3-yl)-6-(2,4-dimethylthiazol-5-yl)-4-fluoroisoindolin-1-one] has a mrna remaining at 1 µM of 117% and a mrna remaining at 10 µM of 59%.

Cc1nn(C)nc1-c1cnc2c(n1)C(=O)N(c1ccc(O[C@H]3C[C@]4(C)CC[C@](C)(C3)N4)nn1)C2 [Compound 623, 3-(2,5-dimethyl-2H-1,2,3-triazol-4-yl)-6-(6-(((1R,3s,5S)-1,5-dimethyl-8-azabicyclo[3.2.1]octan-3-yl)oxy)pyridazin-3-yl)-6,7-dihydro-5H-pyrrolo[3,4-b]pyrazin-5-one] was tested, and the EC50 (EC50 of MSH3 downregulation, XtalPi) was 2990 nM, the mrna remaining at 1 µM was 60% and the mrna remaining at 10 µM was 13%.

With Cc1nn(C)cc1-c1cc2c(c(Cl)n1)CN(c1ccc(N(C)[C@H]3C[C@]4(C)CC[C@](C)(C3)N4)nn1)C2=O [Compound 90, 4-chloro-6-(1,3-dimethyl-1H-pyrazol-4-yl)-2-(6-(((1R,3s,5S)-1,5-dimethyl-8-azabicyclo[3.2.1]octan-3-yl)(methyl)amino)pyridazin-3-yl)-2,3-dihydro-1H-pyrrolo[3,4-c]pyridin-1-one] the mrna remaining at 1 µM was 38% and the mrna remaining at 10 µM was 18%.

For Cn1nc(Cl)c(-c2cc(F)c3c(c2)C(=O)N(c2ccc(N4CCN5CCC[C@H]5C4)nn2)C3)n1 [Compound 671, (S)-6-(5-chloro-2-methyl-2H-1,2,3-triazol-4-yl)-4-fluoro-2-(6-(hexahydropyrrolo[1,2-a]pyrazin-2(1H)-yl)pyridazin-3-yl)isoindolin-1-one], the mrna remaining at 1 µM was 94% and the mrna remaining at 10 µM was 47%.

Cn1nc(Cl)c(-c2cnc3c(c2)C(=O)N(c2ccc(O[C@@H]4CCC(C)(C)NC(C)(C)C4)nn2)C3)n1 [Compound 605, (R)-3-(5-chloro-2-methyl-2H-1,2,3-triazol-4-yl)-6-(6-((2,2,7,7-tetramethylazepan-4-yl)oxy)pyridazin-3-yl)-6,7-dihydro-5H-pyrrolo[3,4-b]pyridin-5-one] gave a mrna remaining at 1 µM of 82% and a mrna remaining at 10 µM of 56%.

In the case of Cn1nc(Cl)c(-c2cnc3c(c2)C(=O)N(c2ccc(N4CCC[C@@H](NC(C)(C)C)C4)nn2)C3)n1 [Compound 617, (R)-6-(6-(3-(tert-butylamino)piperidin-1-yl)pyridazin-3-yl)-3-(5-chloro-2-methyl-2H-1,2,3-triazol-4-yl)-6,7-dihydro-5H-pyrrolo[3,4-b]pyridin-5-one], the mrna remaining at 1 µM is reported as 93% and the mrna remaining at 10 µM is reported as 70%.

Work on CN(c1ccc(N2Cc3ncc(-c4cnn(C)n4)cc3C2=O)nn1)C1CC(C)(C)NC(C)(C)C1 [Compound 189, 6-(6-(methyl(2,2,6,6-tetramethylpiperidin-4-yl)amino)pyridazin-3-yl)-3-(2-methyl-2H-1,2,3-triazol-4-yl)-6,7-dihydro-5H-pyrrolo[3,4-b]pyridin-5-one] yielded a mrna remaining at 1 µM of 73% and a mrna remaining at 10 µM of 23%.

For Cc1nn(C)cc1-c1cnc2c(c1)C(=O)N(c1ccc(O[C@@H]3CC(C)(C)NC(C)(C)[C@@H]3F)nn1)C2 [Compound 211, 3-(1,3-dimethyl-1H-pyrazol-4-yl)-6-(6-(((3S,4R)-3-fluoro-2,2,6,6-tetramethylpiperidin-4-yl)oxy)pyridazin-3-yl)-6,7-dihydro-5H-pyrrolo[3,4-b]pyridin-5-one], the mrna remaining at 1 µM was 90% and the mrna remaining at 10 µM was 55%.

Cc1nn(C)cc1-c1cc2c(c(Cl)n1)CN(c1ccc(O[C@H]3C[C@]4(C)CC[C@](C)(C3)N4)nn1)C2=O [Compound 93, 4-chloro-6-(1,3-dimethyl-1H-pyrazol-4-yl)-2-(6-(((1R,3s,5S)-1,5-dimethyl-8-azabicyclo[3.2.1]octan-3-yl)oxy)pyridazin-3-yl)-2,3-dihydro-1H-pyrrolo[3,4-c]pyridin-1-one] was tested, and the mrna remaining at 1 µM was 91% and the mrna remaining at 10 µM was 72%.

CN(c1ccc(N2Cc3ncc(-c4cn(C)nc4Cl)cc3C2=O)nn1)[C@H]1C[C@]2(C)CC[C@](C)(C1)N2 [Compound 609, 3-(3-chloro-1-methyl-1H-pyrazol-4-yl)-6-(6-(((1R,3s,5S)-1,5-dimethyl-8-azabicyclo[3.2.1]octan-3-yl)(methyl)amino)pyridazin-3-yl)-6,7-dihydro-5H-pyrrolo[3,4-b]pyridin-5-one] gave a mrna remaining at 1 µM of 39% and a mrna remaining at 10 µM of 7%.

Cn1ncc(-c2cc(F)c3c(c2)C(=O)N(c2ccc(N4CCN[C@@H](C(C)(C)C)C4)nn2)C3)n1 [Compound 630, (S)-2-(6-(3-(tert-butyl)piperazin-1-yl)pyridazin-3-yl)-4-fluoro-6-(2-methyl-2H-1,2,3-triazol-4-yl)isoindolin-1-one] showed a mrna remaining at 1 µM of 106% and a mrna remaining at 10 µM of 72%.

In the case of CN(c1ccc(N2Cc3cnc(-c4cn(C)nc4C(F)(F)F)cc3C2=O)nn1)[C@H]1C[C@]2(C)CC[C@](C)(C1)N2 [Compound 61, 2-(6-(((1R,3s,5S)-1,5-dimethyl-8-azabicyclo[3.2.1]octan-3-yl)(methyl)amino)pyridazin-3-yl)-6-(1-methyl-3-(trifluoromethyl)-1H-pyrazol-4-yl)-2,3-dihydro-1H-pyrrolo[3,4-c]pyridin-1-one], the mrna remaining at 1 µM is reported as 44% and the mrna remaining at 10 µM is reported as 18%.

Cc1nn(C)cc1-c1cnc2c(c1)C(=O)N(c1ccc(N3CCN[C@@H](C(C)C)C3)nn1)C2 [Compound 602, (S)-3-(1,3-dimethyl-1H-pyrazol-4-yl)-6-(6-(3-isopropylpiperazin-1-yl)pyridazin-3-yl)-6,7-dihydro-5H-pyrrolo[3,4-b]pyridin-5-one] showed a mrna remaining at 1 µM of 64% and a mrna remaining at 10 µM of 29%.

For CN(c1ccc(N2Cc3c(F)cc(-c4cnn(CC(C)(C)O)n4)cc3C2=O)nn1)[C@H]1C[C@]2(C)CC[C@](C)(C1)N2 [Compound 634, 2-(6-(((1R,3s,5S)-1,5-dimethyl-8-azabicyclo[3.2.1]octan-3-yl)(methyl)amino)pyridazin-3-yl)-4-fluoro-6-(2-(2-hydroxy-2-methylpropyl)-2H-1,2,3-triazol-4-yl)isoindolin-1-one], the mrna remaining at 1 µM was 63% and the mrna remaining at 10 µM was 76%.

Cc1nn(C)cc1-c1cnc2c(c1)C(=O)N(c1ccc(OC3CC(C)(C)NC(C)(C)C3)nn1)C2 [Compound 141, 3-(1,3-dimethyl-1H-pyrazol-4-yl)-6-(6-((2,2,6,6-tetramethylpiperidin-4-yl)oxy)pyridazin-3-yl)-6,7-dihydro-5H-pyrrolo[3,4-b]pyridin-5-one] gave a mrna remaining at 1 µM of 67% and a mrna remaining at 10 µM of 6%.

In the case of Cc1nn(C)nc1-c1cc(F)c2c(c1)C(=O)N(c1ccc(N3CCC4CCC(C3)N4)nn1)C2 (centres unmarked) [Compound 651, 2-(6-(3,9-diazabicyclo[4.2.1]nonan-3-yl)pyridazin-3-yl)-6-(2,5-dimethyl-2H-1,2,3-triazol-4-yl)-4-fluoroisoindolin-1-one], the mrna remaining at 1 µM is reported as 96% and the mrna remaining at 10 µM is reported as 60%.
